Experimental data as given in US10287276B2, “Heteroaryl-1,2,4-triazole and heteroaryl-tetrazole compounds for controlling ectoparasites” (Elanco Tiergesundheit AG, priority 2016, dated 2019).

Assays:
[1] = system: Ctenocephalides Felis (Cat Flea); test: Activity in vitro against Ctenocephalides felis (cat flea), Assay A; conditions: Ctenocephalides felis; at 100 ppm; adult fleas fed on treated blood for 24 h; dead fleas counted; read-out: efficacy (EC80)
Experimental: Activity In Vitro Against Ctenocephalides Felis (Cat Flea)—Assay A
A mixed adult population of fleas is placed in a suitably formatted 96-well plate allowing fleas to access and feed on treated blood via an artificial feeding system. Fleas are fed on treated blood for 24 h, after which the compound effect is recorded. Insecticidal activity is determined on the basis of the number of dead fleas recovered from the feeding system.

[2] = system: Rhipicephalus sanguineus (Dog Tick); test: Activity in vitro against Rhipicephalus sanguineus (dog tick), Assay A, contact test; conditions: Rhipicephalus sanguineus, 168 h, at 100 ppm, adult ticks, 28° C. and 80% relative humidity for 7 days, read-out: efficacy (EC80)
Experimental: Activity In Vitro Against Rhipicephalus sanguineus (Dog Tick)—Assay A
A contact test is performed by pre-coating microplate with serial dilution of compound allowing evaluating anti-parasitic activity by contact against ticks. A mixed adult tick population is then distributed to each well of the plate and incubated at 28° C. and 80% relative humidity for 7 days, during which the effect of the test compound is monitored. Acaricidal activity is confirmed if and when adult ticks are dead.

[3] = system: Lucilla Cuprina (Australian sheep blowfly); test: Activity in vitro against Lucilla cuprina (Australian sheep blowfly), Assay A; conditions: Lucilia cuprina, 96 h; at 32 ppm; eggs on agar-based medium, 4 days at 28° C. and 60% relative humidity; read-out: efficacy (EC80)
Experimental: Activity in vitro against Lucilla Cuprina (Australian sheep blowfly)—Assay A
Freshly laid blowfly eggs are used to seed a suitably formatted microplate containing the test substances to be evaluated for antiparasitic activity. Each compound is tested by serial dilution in order to determine its minimum efficacy dose. The test compounds are embedded in an agar-based nutritive medium allowing the full development of the eggs into 3rd instar larvae. The incubation lasts for 4 days at 28° C. and 60% relative humidity. Egg-hatching and ensuing larval development are also recorded to identify a possible growth-regulating activity.

[4] = system: Engorged Female Rhipicephalus microplus (Cattle Tick); test: Activity in vitro against engorged female Rhipicephalus microplus (cattle tick), contact test; conditions: 672 h, organophosphorous-resistant Ultimo strain, evaluation 28 days later on mortality, oviposition and hatched larvae, read-out: efficacy (EC80)
Experimental: Activity In Vitro Against Engorged Female Rhipicephalus microplus (Cattle Tick)
A contact test is performed by pre-coating 6-well microplates with serial dilution of the compound to be evaluated for anti-parasitic activity. 10 engorged female ticks of the organophosphorous-resistant Ultimo strain are distributed to each well in triplicates. Plates are then incubated at 28° C. and 80% relative humidity. Evaluation takes place 28 days later based on mortality, oviposition and hatched larvae. […] Activity In Vivo Against Rhipicephalus sanguineus Nymphs on Mongolian Gerbils (Meriones unguiculatus) (Spray Application)

SMILES | pest or weed control at 100 ppm [1] | pest or weed control at 100 ppm [2] | pest or weed control at 32 ppm [3] | pest or weed control at 200 ppm [4]
CC(c1ncnn1-c1ccccn1)N(CC1CC1)C(=S)c1cccc(C#N)c1 (stereo not shown) [Example 47, 3-Cyano-N-(cyclopropylmethyl)-N-[1-[2-(2-pyridyl)-1,2,4-triazol-3-yl]ethyl]benzenecarbothioamide] | > 80% | > 80% | – | –
CC(c1nnnn1-c1ncccn1)N(CC1CC1)C(=O)c1cc(C(F)(F)F)cc(C(F)(F)F)c1 (stereo not shown) [Example 33, N-(Cyclopropylmethyl)-N-[1-(1-pyrimidin-2-yltetrazol-5-yl)ethyl]-3,5-bis(trifluoromethyl)benzamide] | – | – | > 80% | –
CC(c1ncnn1-c1ccccn1)N(CC1COC1)C(=O)c1cc(C(F)(F)F)cc(C(F)(F)F)c1 (stereo not shown) [Example 13, N-(Oxetan-3-ylmethyl)-N-[1-[2-(2-pyridyl)-1,2,4-triazol-3-yl]ethyl]-3,5-bis(trifluoromethyl)benzamide] | > 80% | > 80% | > 80% | –
CC(c1ncnn1-c1ccccn1)N(CC1CC1)C(=O)c1cccc(OC(F)(F)F)c1 (stereo not shown) [Example 4, N-(Cyclopropylmethyl)-N-[1-[2-(2-pyridyl)-1,2,4-triazol-3-yl]ethyl]-3-(trifluoromethoxy)benzamide] | > 80% | > 80% | > 80% | > 80%
CC(CN(CC1CC1)C(=O)c1cc(C(F)(F)F)cc(C(F)(F)F)c1)c1ncnn1-c1ccccn1 (stereo not shown) [Example 42, 3-(Cyclopropylmethyl)-N-[2-[2-(2-pyridyl)-1,2,4-triazol-3-yl]propyl]-3,5-bis(trifluoromethyl)benzamide] | > 80% | > 80% | > 80% | –
C#CCN(C(=O)c1cncc(C(F)(F)F)c1)[C@@H](C)c1ncnn1-c1ncccn1 [Example 43, N-Prop-2-ynyl-N-[(1S)-1-(2-pyrimidin-2-yl-1,2,4-triazol-3-yl)ethyl]-5-(trifluoromethyl)pyridine-3-carboxamide] | > 80% | > 80% | > 80% | –
Cc1nc(C(C)N(CC2CC2)C(=O)c2cccc(C#N)c2)n(-c2ccccn2)n1 (stereo not shown) [Example 34, 3-Cyano-N-(cyclopropylmethyl)-N-[1-[5-methyl-2-(2-pyridyl)-1,2,4-triazol-3-yl]ethyl]benzamide] | > 80% | > 80% | – | –
CC(c1ncnn1-c1ccccn1)N(Cc1cccc(Cl)c1)C(=O)c1cccc(C#N)c1 (stereo not shown) [Example 5, N-[(3-Chlorophenyl)methyl]-3-cyano-N-[1-[2-(2-pyridyl)-1,2,4-triazol-3-yl]ethyl]benzamide] | > 80% | – | – | –
C#CCN(C(=O)c1cc(C(F)(F)F)cc(C(F)(F)F)c1)[C@@H](C)c1ncnn1-c1ncccn1 [Example 46, N-Prop-2-ynyl-N-[(1S)-1-(2-pyrimidin-2-yl-1,2,4-triazol-3-yl)ethyl]-3,5-bis(trifluoromethyl)benzamide] | > 80% | – | > 80% | > 80%
CC(c1ncnn1-c1ncccn1)N(CCF)C(=O)c1cc(Cl)cc(OC(F)(F)F)c1 (stereo not shown) [Example 22, 3-Chloro-N-(2-fluoroethyl)-N-[1-(2-pyrimidin-2-yl-1,2,4-triazol-3-yl)ethyl]-5-(trifluoromethoxy)benzamide] | > 80% | – | > 80% | > 80%
C#CCN(C(=O)c1cncc(C(F)(F)F)c1)C(C)c1ncnn1-c1ncccn1 (stereo not shown) [Example 32, N-Prop-2-ynyl-N-[1-(2-pyrimidin-2-yl-1,2,4-triazol-3-yl)ethyl]-5-(trifluoromethyl)pyridine-3-carboxamide] | > 80% | > 80% | > 80% | –
